{
  "source": "patent US9725433B2",
  "about": "“Compounds as tyrosine kinase modulators” (Allergan, Inc., priority 2009, dated 2017)",
  "biological_target": "PDGFβ (Homo sapiens (Human), UniProt P09619)",
  "sequence (P09619 33-1106)": "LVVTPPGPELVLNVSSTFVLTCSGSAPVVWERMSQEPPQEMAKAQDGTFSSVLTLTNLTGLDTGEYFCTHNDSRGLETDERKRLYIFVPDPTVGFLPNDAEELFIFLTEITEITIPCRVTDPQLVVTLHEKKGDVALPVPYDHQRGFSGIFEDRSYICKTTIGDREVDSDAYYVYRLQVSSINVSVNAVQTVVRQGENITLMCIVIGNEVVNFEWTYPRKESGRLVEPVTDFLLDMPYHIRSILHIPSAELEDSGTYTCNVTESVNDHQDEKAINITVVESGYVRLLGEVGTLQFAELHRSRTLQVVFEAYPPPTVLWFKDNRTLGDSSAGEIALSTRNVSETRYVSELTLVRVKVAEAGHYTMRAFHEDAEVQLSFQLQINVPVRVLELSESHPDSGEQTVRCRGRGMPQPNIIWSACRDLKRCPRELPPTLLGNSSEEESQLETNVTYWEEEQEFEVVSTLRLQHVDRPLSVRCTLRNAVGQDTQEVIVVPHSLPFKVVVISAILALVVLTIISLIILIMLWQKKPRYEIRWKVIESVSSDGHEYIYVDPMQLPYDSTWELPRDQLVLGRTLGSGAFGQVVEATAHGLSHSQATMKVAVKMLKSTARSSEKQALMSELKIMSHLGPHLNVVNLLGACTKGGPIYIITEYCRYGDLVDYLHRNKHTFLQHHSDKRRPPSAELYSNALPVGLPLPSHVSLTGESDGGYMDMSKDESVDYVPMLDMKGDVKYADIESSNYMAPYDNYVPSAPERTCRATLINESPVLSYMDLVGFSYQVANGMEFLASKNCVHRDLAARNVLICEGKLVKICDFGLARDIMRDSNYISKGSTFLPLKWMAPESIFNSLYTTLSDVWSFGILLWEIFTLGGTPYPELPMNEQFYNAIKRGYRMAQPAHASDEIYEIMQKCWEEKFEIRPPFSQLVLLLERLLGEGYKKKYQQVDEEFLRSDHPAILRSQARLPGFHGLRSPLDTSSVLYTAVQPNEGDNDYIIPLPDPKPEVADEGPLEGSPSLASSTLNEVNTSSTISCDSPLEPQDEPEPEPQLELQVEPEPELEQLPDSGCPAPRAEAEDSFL",
  "test": "PDGF stimulated Ca2+ signal in vitro (FLIPR, NHDF-Ad); PDGFβ cellular",
  "assay_type": "cell-based",
  "details": "PDGF 10 ng/mL, amide linker compounds",
  "experimental": "Automated FLIPR (Fluorometric Imaging Plate Reader) technology was used to screen for inhibitors of PDGF induced increases in intracellular calcium levels in fluorescent dye loaded […] cells. NHDF-Ad (Normal human dermal fibroblasts) (Lonza) were seeded in 384-well fibronectin coated black-walled plates overnight at 37° C./5% CO2. […] Cells were washed 4 times (ELx405-CW, Bio-Tek) to remove extracellular dye.",
  "note": "pIC50: −log10 of the molar value.",
  "data": [
    {"substance": "2,3-dihydroxypropyl 5-(4-{3-[(3-methyl-2-furoyl)amino]phenoxy}pyridin-2-yl)-1H-pyrrole-3-carboxylate [Example 21]", "values": [
      {"measurement": "pIC50", "value": 7.41}
    ]}
  ]
}
